Active and inactive are the calls of the source. The calls are words filed in the database; no cut-off is given here.
Columns and labels:
[1] = target: T1, Patatin-like phospholipase domain-containing protein 2 (Mus musculus, UniProt Q8BJ56); assay: Inhibition of murine ATGL expressed in COS-7 cells; format: cell-based
T1 sequence (Q8BJ56 whole entry): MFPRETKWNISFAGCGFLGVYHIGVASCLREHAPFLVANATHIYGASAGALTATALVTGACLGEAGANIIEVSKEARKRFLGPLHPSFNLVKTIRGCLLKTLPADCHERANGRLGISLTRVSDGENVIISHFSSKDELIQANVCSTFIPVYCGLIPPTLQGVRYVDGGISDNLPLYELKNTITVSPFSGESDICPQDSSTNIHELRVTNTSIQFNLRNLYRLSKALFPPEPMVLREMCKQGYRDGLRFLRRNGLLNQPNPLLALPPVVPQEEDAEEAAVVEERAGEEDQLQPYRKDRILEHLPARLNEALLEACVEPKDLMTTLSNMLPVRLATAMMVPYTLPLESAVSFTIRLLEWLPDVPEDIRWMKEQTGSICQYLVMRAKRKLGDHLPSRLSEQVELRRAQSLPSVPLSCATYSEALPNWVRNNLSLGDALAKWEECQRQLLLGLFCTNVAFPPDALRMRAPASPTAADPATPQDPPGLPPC

[2] = target: T2, Patatin-like phospholipase domain-containing protein 2 (Mus musculus) (UniProt Q8BJ56); assay: Inhibition of murine ATGL expressed in COS-7 cells at 200 uM relative to control; format: cell-based
T2 sequence (whole entry): T1 sequence (Q8BJ56 whole entry)

[3] = target: T1, Patatin-like phospholipase domain-containing protein 2; assay: Inhibition of recombinant murine ATGL expressed in Escherichia coli XL-1 lysates; format: subcellular
[4] = target: T2, Patatin-like phospholipase domain-containing protein 2 (Mus musculus); assay: Inhibition of recombinant murine ATGL expressed in Escherichia coli XL-1 lysates at 200 uM relative to control; format: subcellular
[5] = target: T1, Patatin-like phospholipase domain-containing protein 2; assay: Inhibition of murine ATGL
[6] = target: T2, Patatin-like phospholipase domain-containing protein 2 (Mus musculus); assay: Inhibition of murine ATGL at 200 uM relative to control
[7] = In vivo inhibition of ATGL in ad libitum fed mouse assessed as reduction in circulating fatty acid level at 200 uM administered via oral gavage measured after 8 hrs; format: functional
[8] = In vivo inhibition of ATGL in ad libitum fed mouse assessed as reduction in circulating glycerol level at 200 uM administered via oral gavage measured after 8 hrs; format: functional
[9] = In vivo inhibition of ATGL in 12 hrs fasted mouse assessed as reduction in circulating fatty acid level at 200 uM administered via oral gavage measured after 8 hrs; format: functional
[10] = In vivo inhibition of ATGL in 12 hrs fasted mouse assessed as reduction in circulating glycerol level at 200 uM administered via oral gavage measured after 8 hrs; format: functional
[11] = In vivo inhibition of ATGL in 12 hrs fasted mouse assessed as reduction in circulating triacylglycerol level at 200 uM administered via oral gavage measured after 8 hrs; format: functional
Mus musculus = assay: In vivo inhibition of ATGL in 12 hrs fasted mouse assessed as reduction in circulating TG level at 200 uM administered via oral gavage in presence of poloxamer measured after 8 hrs; format: functional, organism-based

SMILES | IC50 [1] [µM] | inhibition [2] [%] | other results
CCOC(=O)c1cccc(-c2ccc(C(C)N3CCN(C)CC3)cc2)c1 (stereo not given) | 90 | 69 | IC50 [3]: 200 µM; inhibition [4]: 30%
CCOC(=O)c1cccc(-c2ccc(C)cc2)c1 | 140 | 63 | –
CCOC(=O)c1cccc(-c2ccc(OCC)c(N)c2)c1 | 140 | 59 | –
CCOc1ccc(-c2cccc(N)c2)cc1 | 100 | 65 | –
CCCCOC(=O)c1nn(-c2ccc(OCC)cc2)cc1O | – | – | IC50 [5]: 100 µM; inhibition [6]: 74%
CC(C)OC(=O)Nc1cccc(-c2ccc(N(C)C)cc2)c1 | 82 | 69 | –
CCOC(=O)c1ccc(-c2ccc(OCC)cc2)o1 | 50 | 93 | –
CCOC(=O)c1cccc(-c2ccc(CN3CCCC3)cc2)c1 | > 200 | 33 | –
CCOC(=O)c1ccn(-c2ccc(OCC)cc2)n1 | – | – | inhibition [6]: 89%
CCOC(=O)c1ccc(-c2ccc(OCC)cc2)s1 | 70 | 81 | –
CCOC(=O)c1nn(-c2ccc(OCC)cc2)cc1O | – | – | IC50 [5]: 120 µM; inhibition [6]: 67%
CCOC(=O)c1cccc(-c2ccncc2)c1 | > 200 | 40 | –
CCOc1ccc(-c2cccc(C)c2)cc1 | 70 | 54 | –
CCOC(=O)c1ccnc(-c2ccc(OCC)cc2)c1 | 80 | 87 | –
CCOC(=O)c1cccc(-c2ccc3c(ccn3C)c2)c1 | 75 | 84 | –
CCOC(=O)c1cccc(-c2ccc(OCC)nc2)c1 | 130 | 68 | –
CCOC(=O)c1cccc(-c2ccc(O)cc2)c1 | 100 | 77 | –
CCCCOC(=O)c1cccc(-c2ccc(OCC)cc2)c1 | 100 | 61 | –
CCOC(=O)c1cn(-c2ccc(OCC)cc2)nn1 | – | – | IC50 [3]: > 200 µM; inhibition [4]: 43%
CCNS(=O)(=O)c1cccc(-c2ccc(OCC)cc2)c1 | 200 | 46 | –
CCOC(=O)c1cccc(-c2ccc(CN(C)C)o2)c1 | 190 | 53 | –
CCOC(=O)c1cc(-c2ccc(OCC)cc2)ccn1 | 105 | 72 | –
CN(C)C(=O)Nc1cccc(-c2ccc(N(C)C)cc2)c1 | < 5 | 98 | inhibition [4]: 99%; inhibition in vivo at 200 µM [7]: 27%; inhibition in vivo at 200 µM [8]: 23%; inhibition in vivo at 200 µM [9]: 27%; inhibition in vivo at 200 µM [10]: 26%; inhibition in vivo at 200 µM [11]: 37%; inhibition (Mus musculus): Active
CCOC(=O)c1cccc(-c2ccsc2)c1 | 75 | 67 | –
CCOc1ccc(-c2cccc(S(=O)(=O)NC)c2)cc1 | 200 | 47 | –

SMILES | IC50 [1] [µM] | inhibition [2] [%] | other results
CCOC(=O)C1CCCC(c2ccc(OCC)cc2)N1 (stereo not given) | > 200 | 48 | –
CCOc1ccc(-n2cc(O)c(C(=O)O)n2)cc1 | – | – | IC50 [5]: > 200 µM; inhibition [6]: 15%
CCOC(=O)c1cccc(-c2ccc([N+](=O)[O-])cc2)c1 | 95 | 63 | –
CCOc1ccc(-c2cccc(C(=O)Oc3ccc([N+](=O)[O-])cc3)c2)cc1 | 150 | 56 | –
CCOc1ccc(-c2cccc([N+](=O)[O-])c2)cc1 | > 200 | 35 | –
CCOC(=O)c1cccc(-c2ccc(C(=O)CN(C)C)cc2)c1 | 200 | 20 | IC50 [3]: 200 µM; inhibition [4]: 4%
CCNC(=O)c1cccc(-c2ccc(OCC)cc2)c1 | 90 | 62 | –
CN(C)C(=O)N(C)c1cccc(-c2ccc(N(C)C)cc2)c1 | 70 | 74 | –
CCOC(=O)c1cccc(-c2cccs2)c1 | 90 | 55 | –
CCOC(=O)c1nn(-c2ccc(OCC)cc2)cc1OC | – | – | IC50 [5]: 90 µM; inhibition [6]: 63%
CCOC(=O)c1cccc(-c2ccc(OCC)c([N+](=O)[O-])c2)c1 | 200 | 44 | –
CCOc1ccc(-c2cccc(S(=O)(=O)N(C)C)c2)cc1 | 110 | 63 | –
CCOC(=O)c1cccc(-c2ccc(OCC)cc2)c1 | 50 | 87 | –
CCOC(=O)c1cccc(-c2ccc(CN3CCN(C)CC3)cc2)c1 | > 200 | 26 | IC50 [3]: > 200 µM; inhibition [4]: 32%
CCOc1ccc(-c2cccc(NC(C)=O)c2)cc1 | 200 | 52 | –
CCOC(=O)Nc1cccc(-c2ccc(N(C)C)cc2)c1 | 3 | 93 | –
CCOc1ccc(-c2cccc(NC(=O)N(C)C)c2)cc1 | 70 | 68 | IC50 [3]: 9 µM; inhibition [4]: 83%
CCOC(=O)N(C)c1cccc(-c2ccc(N(C)C)cc2)c1 | > 200 | 20 | –
CCOC(=O)c1cccc(-c2ccccc2)c1 | 200 | 52 | –
CCOC(=O)c1cccc(-c2ccc(CN3CCN(S(C)(=O)=O)CC3)o2)c1 | 100 | 66 | –
CCOC(=O)c1cccc(-c2ccc3c(c2)CCN3)c1 | 120 | 66 | –
CN(C)c1ccc(-c2cccc(N)c2)cc1 | 100 | 70 | –
CN(C)c1ccc(-c2cccc(NC(=O)C(C)(C)C)c2)cc1 | > 200 | 25 | –
CCOc1ccc(-c2cccc(C(=O)O)c2)cc1 | > 200 | 23 | –
CC(C)COC(=O)Nc1cccc(-c2ccc(N(C)C)cc2)c1 | 22 | 90 | –

SMILES | IC50 [1] [µM] | inhibition [2] [%] | other results
CCOc1ccc(-n2cc(O)c(C(=O)OC)n2)cc1 | – | – | IC50 [5]: 130 µM; inhibition [6]: 64%
CCOc1ccc(-c2cccc(C(=O)N3CCCC3)c2)cc1 | 160 | 53 | –
CN(C)c1ccc(-c2cccc(NC(=O)N3CCOCC3)c2)cc1 | > 200 | 31 | –
CCOc1ccc(-c2cccc(C(=O)OCCOCCOC)c2)cc1 | > 200 | 43 | –
CCOC(=O)c1cccc(-c2ccc(CN3CCCCC3)cc2)c1 | 75 | 68 | –
CCOc1ccc(-c2cccc(C(=O)OCCOC)c2)cc1 | 70 | 89 | –
CN(C)c1ccc(-c2cccc(NC(=O)OCc3ccccc3)c2)cc1 | > 200 | 50 | –
CCOc1ccc(-c2cccc(C(=O)OCC(F)(F)F)c2)cc1 | 120 | 71 | –
CN(C)c1ccc(-c2cccc([N+](=O)[O-])c2)cc1 | > 200 | 21 | –
CCOC(=O)c1cccc(-c2ccc(CN(C)C)cc2)c1 | 150 | 67 | –
CCOC(=O)c1cccc(-c2ccc(CN3CCN(C)CC3)o2)c1 | 120 | 67 | –
CCCCCCOC(=O)c1cccc(-c2ccc(OCC)cc2)c1 | > 200 | 48 | –
CCOc1ccc(-c2ccccc2)cc1 | > 200 | 35 | –
COC(=O)Nc1cccc(-c2ccc(N(C)C)cc2)c1 | 5 | 95 | –
CCOC(=O)c1cccc(-c2ccc(C(C)N(C)C)cc2)c1 (stereo not given) | 200 | 50 | IC50 [3]: 200 µM; inhibition [4]: 9%
CCOC(=O)c1cccc(-c2ccc(OC)cc2)c1 | 80 | 77 | –
CCOC(=O)c1cccc(-c2ccc(C(C)=O)cc2)c1 | 200 | 36 | IC50 [3]: 200 µM; inhibition [4]: 17%
CN(C)c1ccc(-c2cccc(NC(=O)Oc3ccccc3)c2)cc1 | 73 | 75 | –
CCOC(=O)c1cccc(-c2ccc(Br)cc2)c1 | – | – | IC50 [3]: > 200 µM; inhibition [4]: 34%
CCOC(=O)c1ccc(-c2ccc(OCC)cc2)[nH]1 | > 200 | 44 | –
CCOc1ccc(-c2cccc(C(=O)NC)c2)cc1 | > 200 | 40 | –
CCOC(=O)c1cccc(-c2ccc(OCC)cc2)n1 | 60 | 79 | –
CCOC(=O)c1cccc(-c2ccc(CN3CCN(S(C)(=O)=O)CC3)cc2)c1 | 100 | 68 | IC50 [3]: 100 µM; inhibition [4]: 68%
CCOC(=O)c1cncc(-c2ccc(OCC)cc2)c1 | 130 | 70 | –
CCOC(=O)c1cccc(-c2ccc3[nH]ccc3c2)c1 | 60 | 80 | –

Reference: ChEMBL document CHEMBL4725289, “Structure-activity relationship studies for the development of inhibitors of murine adipose triglyceride lipase (ATGL)” (Bioorg Med Chem, 2020)
